# Experimental data published in PubChem BioAssay AID652053 (Broad Institute, 2013).
# System: Huh7 psiCHECK-miR122 Renilla luciferase reporter, 48 h
# Assay: miR-122 inhibitors in Huh7 reporter cells, dose response, cell-based, Huh7 psiCHECK-miR122, Renilla luciferase, cherry-pick (AID 652053)
row,Structure (SMILES),AC40 [µM]
1,CCOc1cc(C)c(S(=O)(=O)Nc2ccc(Cl)cn2)cc1C,4.04
2,Cc1cccc(NS(=O)(=O)c2cccc(C(=O)N3CCCCCCC3)c2)c1,1.8
3,C[C@H](CO)N1C[C@H](C)[C@H](CN(C)Cc2ccc(C(=O)Nc3ccccc3N)cc2)Oc2ccc(NS(=O)(=O)c3ccccc3)cc2CC1=O,3.45
4,C[C@H](CO)N1C[C@H](C)[C@@H](CN(C)C(=O)Nc2cccc3ccccc23)Oc2ccc(NC(=O)Nc3ccc(C(F)(F)F)cc3)cc2CC1=O,7.77
5,CC(=O)N1c2c(cc(Br)cc2S(=O)(=O)NCC2COc3ccccc3O2)CC1C (centres undefined),4.53
6,CC(=O)N1CCOc2ccc(S(=O)(=O)NCCc3ccc(Cl)cc3)cc21,5.14
7,C[C@H](CO)N1C[C@H](C)[C@H](CN(C)Cc2ccc(Cl)c(Cl)c2)Oc2c(NC(=O)Nc3ccc4c(c3)OCO4)cccc2C1=O,4.58
8,C[C@@H]1CN([C@H](C)CO)C(=O)c2cccc(NS(=O)(=O)c3cccs3)c2O[C@H]1CN(C)Cc1ccc(C(F)(F)F)cc1,1.6
9,CCOC(=O)C1CCCCN1C(=O)c1cc2ccc(OC)cc2c2cc(OC)c(OC)cc12 (centres undefined),4.65
10,Cc1ccc(-c2nn3c(C)nnc3c3ccccc23)cc1S(=O)(=O)NCCN1CCOCC1,3.24
11,Cc1ccc(C)c(S(=O)(=O)NCC(c2ccc3c(c2)OCO3)N2CCOCC2)c1 (centres undefined),1.81
12,Cc1ccc(-c2cc(C(=O)NCCCn3ccnc3)c3ccccc3n2)s1,11.1
13,O=C(Nc1ccccc1)N1C[C@H]2[C@@H](c3ccccc31)[C@@H](CO)N2C(=O)c1ccccn1,33.7
14,COc1ccc(S(=O)(=O)Nc2ccc(C(F)(F)F)cc2)cc1OC,2.12
15,COCC(=O)Nc1ccc(S(=O)(=O)NCCc2ccccc2)cc1,12.9
16,C[C@H](CO)N1C[C@H](C)[C@@H](CN(C)Cc2ccccc2)Oc2c(NS(=O)(=O)c3ccccc3)cccc2C1=O,3.64
17,Cc1ccc(S(=O)(=O)NC23CC4CC(CC(C4)C2)C3)cc1,2.15
18,CCOC(=O)/C(=N/Nc1ccc(Cl)cc1)S(=O)(=O)c1ccccc1,3.28
19,CC(C)c1ccc(S(=O)(=O)Nc2ccc3c(c2)OCO3)cc1,2.71
20,COc1cccc(NS(=O)(=O)c2c(C)cc(C)cc2C)c1,3.37
21,Cc1ccc(C2CC(c3cccs3)=NN2S(=O)(=O)c2ccc(C)cc2)cc1 (centres undefined),8.19
22,COc1ccccc1S(=O)(=O)Nc1cccc(S(=O)(=O)N2CCCC2)c1,1.26
23,Cc1ccc(C(=O)NCCSc2ccc(Cl)cc2)cc1S(=O)(=O)Nc1ccccc1,4.3
24,CC(C)c1ccc(S(=O)(=O)Nc2ccc(-n3cnnn3)cc2)cc1,2.55
25,COc1ccc(NS(=O)(=O)c2ccc(Cl)c(N)c2)cc1Br,3.88

row,Structure (SMILES),AC40 [µM]
1,COc1ccc(F)cc1S(=O)(=O)NC1CCCCCC1,5.11
2,COc1ccccc1CNC(=O)C[C@@H]1CC[C@H]2[C@H](COc3ccc(NC(C)=O)cc3C(=O)N2C)O1,22
3,COC(=O)c1[nH]c2ccccc2c1NC(=O)CN1CCCc2ccccc21,21.5
4,Cc1ccccc1NC(=O)Nc1ccc2c(c1)C(=O)N(C)[C@H]1CC[C@H](CC(=O)NCC3CC3)O[C@H]1CO2,1.87
5,Cc1ccc(C)c(S(=O)(=O)Nc2ccc(C(=O)N3CCC3)cc2)c1,2.82
6,CCCNC(=O)NC[C@H]1[C@@H](c2ccc(C3=CCCC3)cc2)[C@@H](CO)N1C(=O)CC,10.2
7,Cc1cccc(NS(=O)(=O)c2ccc3c(c2)OCCO3)c1,1.57
8,C=CCNc1cc(F)ccc1S(=O)(=O)NCC=C,1.03
9,O=S(=O)(NCc1ccccc1)c1ccc2c(c1)OCCO2,3.42
10,c1ccc(-n2nnnc2-c2cccc3ccccc23)cc1,10.6
11,CCCNC(=O)C[C@H]1CC[C@H]2[C@H](COc3ccc(NC(=O)c4ccc5c(c4)OCO5)cc3C(=O)N2C)O1,14.2
12,Cc1cc(F)ccc1C(O)c1ncc(-c2ccccc2F)[nH]1 (centres undefined),5.29
13,CCN(CC)C(=O)CN(c1cc2c(cc1OC)oc1ccccc12)S(=O)(=O)c1ccccc1,1.69
14,CN(C)c1ccc(C(=O)c2ccc(N(C)C)c3ccccc23)cc1,4.07
15,OC(c1ccc(Cl)c(F)c1)c1ncc(-c2ccccc2F)[nH]1 (centres undefined),2.04
16,COC(=O)c1c(NC(=O)c2ccc(C)c(S(=O)(=O)Nc3ccccc3C)c2)sc2c1CCCC2,< 0.26
17,C[C@H](CO)N1C[C@H](C)[C@@H](CN(C)Cc2ccc3c(c2)OCO3)Oc2c(NS(=O)(=O)c3ccc(Cl)cc3)cccc2C1=O,24.2
18,COc1ccccc1-c1nnc2sc(-c3ccc(N(C)C)cc3)nn12,7.44
19,CCCCNS(=O)(=O)c1ccc2nc(-c3cccnc3)cc(C(=O)NC3CCCC3)c2c1,5.37
20,C[C@@H]1CCCCO[C@@H](CN(C)CC2CCCCC2)[C@@H](C)CN([C@H](C)CO)C(=O)c2cc(NC(=O)CCC(F)(F)F)ccc2O1,9.73
21,CC(C)(C)c1cc(C(=O)NNc2cccc(Cl)c2)n(Cc2ccccc2)n1,4.19
22,COc1cc(C)c(Cl)cc1S(=O)(=O)NCc1ccco1,1.18
23,C[C@@H]1CN([C@H](C)CO)C(=O)c2cccc(NC(=O)C3CC3)c2O[C@H]1CN(C)Cc1ccc(C(F)(F)F)cc1,4.08
24,CCCNC(=O)C[C@@H]1CC[C@H]2[C@H](COc3ccc(NC(=O)c4ccc5c(c4)OCO5)cc3C(=O)N2C)O1,2.21
